From patent publication US20240247030A1, “TARGETED DELIVERY OF TERTIARY AMINE-CONTAINING DRUG SUBSTANCES” (Seagen Inc., priority 2014, published 2024)
In brackets after ≈: the same amount, converted by molar mass. Like-named read-outs stand apart in the source and are kept apart here. *1 amine or outer side, *2 acyl side, *3 side chain or, on linkers, in order; H or OH if unused. Where a SMILES comes first, the peptide text is derived from it. [ ]: non-standard residue; d: D form. The star is where a group is joined. Dolaproine = CO[C@@H]([C@@H]1CCCN1)[C@@H](C)C(=O)O; Hexanoyl(6-maleimido) = O=C1C=CC(=O)N1CCCCCC(=O)*; Dil = CC[C@H](C)[C@H](NC)[C@@H](CC(=O)O)OC; PABC = O=C(OCc1ccc(N[*:1])cc1)[*:2]; Cit = NC(=O)NCCC[C@H](N)C(=O)O; NMeV = CN[C@H](C(=O)O)C(C)C

Tests used:
[1] = Pharmacokinetics of radiolabeled antibody or ADC; assay type: in vivo, rat; details: 1 mg/kg i.v., radiolabeled non-targeting ADC
Description: PK test articles were radiolabeled using the following procedure.
Each test article was dosed once in replicate animals.

HL60 AML cells = test: cells; assay type: cell-based; details: for IC50: Homo sapiens, HL-60, 96 h, read-out: IC50, HL60, AML, Table 6, free drug, 96 hours
Description: (§1) In vitro assays. Cells cultured in log-phase growth were seeded for 24 h in 96-well plates containing 150 μL RPMI 1640 supplemented with 20% FBS. Serial dilutions of antibody-drug conjugates in cell culture media were prepared at 4× working concentrations; 50 μL of each dilution was added to the 96-well plates. Following addition of ADC, cells were incubated with test articles for 4 d at 37° C. After 96 h, growth inhibition was assessed by CellTiter-Glo™ (Promega, Madison, W1) and luminescence was measured on a plate reader. The IC50 value, determined in triplicate, is defined here as the concentration that results in a 50% reduction in cell growth relative to untreated controls.

[2] = system: L540cy Hodgkin lymphoma cells; test: In vitro cytotoxicity (CellTiter-Glo, 96 h); assay type: cell-based; details: for IC50: L540cy, read-out: IC50, L540cy, HL, Table 6, free drug, 96 hours
Karpas299 ALCL cells = test: In vitro cytotoxicity (CellTiter-Glo, 96 h); assay type: cell-based; details: for IC50: Homo sapiens, KARPAS-299, 96 h, read-out: IC50, Karpas299, ALCL, Table 6, free drug, 96 hours
Description: as §1

HL60/RV MDR+ AML cells = test: In vitro cytotoxicity (CellTiter-Glo, 96 h); assay type: cell-based; details: for IC50: Homo sapiens, HL-60, 96 h, read-out: IC50, HL60/RV, MDR+ AML, Table 6, free drug, 96 hours
Description: as §1

L428 MDR+ HL cells = test: In vitro cytotoxicity (CellTiter-Glo, 96 h); assay type: cell-based; details: for IC50: Homo sapiens, L-428, 96 h, read-out: IC50, L428, MDR+ HL, Table 6, free drug, 96 hours
panel of cell lines = test: In vitro cytotoxicity, statements across a panel of cell lines; assay type: cell-based
Description: as §1

DEL ALCL cells = assay type: cell-based
DEL/BVR MDR+ ALCL cells = assay type: cell-based
Description: as §1

[3] = system: Hep3B hepatocellular carcinoma cells; test: In vitro cytotoxicity (CellTiter-Glo, 96 h); assay type: cell-based; details: Table 10; cAC10 conjugate, 8 drug units/Ab; antigen-negative cells
Description: as §1

[4] = Table 11, cAC10 conjugate, 8-drugs/mAb
[5] = Table 10, cAC10 conjugate, 8 drug units/Ab
[6] = Table 15, cOKT-9 conjugate, 8-drugs/Ab
[7] = Table 7, cAC10 conjugate of the Drug-Linker, 8 D+/Ab, 96 h

SMILES: CC[C@H](C)[C@@H]([C@@H](CC(=O)N1CCC[C@H]1[C@H](OC)[C@@H](C)C(=O)N[C@H](C)[C@@H](O)c1ccccc1)OC)N(C)C(=O)[C@@H](NC(=O)[C@H](C(C)C)[N+](C)(C)Cc1ccc(O[C@@H]2O[C@H](C(=O)O)[C@@H](O)[C@H](O)[C@H]2O)c(NC(=O)CCNC(=O)[C@H](CN)N2C(=O)C=CC2=O)c1)C(C)C [Compound 8]
- clearance / exposure profile compared with unconjugated antibody (FIG. 12-14) [1]: PK properties identical to that of unmodified antibody through 7 days

SMILES: CCCC(=O)O[C@H](C[C@H](C(C)C)N(C)C(=O)[C@@H](NC(=O)[C@H]1CCCCN1C)[C@@H](C)CC)c1nc(C(=O)N[C@@H](Cc2ccccc2)C[C@H](C)C(=O)O)cs1 [Compound 156, (2S,4R)-4-(2-((1R,3R)-1-(butyryloxy)-3-((2S,3S)—N,3-dimethyl-2-((R)-1-methylpiperidine-2-carboxamido)pentanamido)-4-methylpentyl)thiazole-4-carboxamido)-2-methyl-5-phenylpentanoic acid]
- IC50 (HL60 AML cells): 0.1 nM
- IC50 ([2]; 96 h): 0.1 nM
- IC50 (Karpas299 ALCL cells): 0.02 nM
- IC50 (HL60/RV MDR+ AML cells): 6 nM
- IC50 (L428 MDR+ HL cells): 0.12 nM

SMILES: CC[C@H](C)[C@H](NC(=O)[C@H]1CCCCN1C)C(=O)N(C)[C@H](C[C@@H](OC(=O)C(C)C)c1nc(C(=O)N[C@@H](Cc2ccccc2)C[C@H](C)C(=O)O)cs1)C(C)C [Compound 157, (2S,4R)-4-(2-((1R,3R)-3-((2S,3S)—N,3-dimethyl-2-((R)-1-methylpiperidine-2-carboxamido)pentanamido)-1-(isobutyryloxy)-4-methylpentyl)thiazole-4-carboxamido)-2-methyl-S-phenylpentanoic acid]
- IC50 (HL60 AML cells): 0.08 nM
- IC50 ([2]; 96 h): 0.04 nM
- IC50 (Karpas299 ALCL cells): 0.011 nM
- IC50 (HL60/RV MDR+ AML cells): 3 nM
- IC50 (L428 MDR+ HL cells): 0.05 nM

SMILES: CC[C@H](C)[C@H](NC(=O)[C@H]1CCCCN1C(=O)CCCCCN1C(=O)C=CC1=O)C(=O)N(C)[C@H](C[C@@H](OC)c1nc(C(=O)N[C@@H](Cc2ccccc2)C[C@H](C)C(=O)O)cs1)C(C)C [Compound 172, (2S,4R)-4-(2-((1R,3R)-3-((2S,3S)-2-((R)-1-(6-(2,5-dioxo-2,5-dihydro-1H-pyrrol-1-yl)hexanoyl)piperidine-2-carboxamido)-N,3-dimethylpentanamido)-1-methoxy-4-methylpentyl)thiazole-4-carboxamido)-2-methyl-5-phenylpentanoic acid]
- IC50, L540cy, HL [2, 4]: >1000 ng/mL
- cytotoxic activity in words, conjugates on CD30+ lymphoma cell lines (panel of cell lines; conjugate of the named Drug Linker or named ADC): inactive
- IC50, DEL, ALCL (DEL ALCL cells; [4]): >1000 ng/mL
- IC50, Karpas299, ALCL (Karpas299 ALCL cells; Table 11, cAC10 conjugate of the Drug-Linker, 8-drugs/mAb): >1000 ng/mL

SMILES: CC[C@H](C)[C@H](NC(=O)[C@H]1CCCC[N+]1(C)Cc1ccc(NC(=O)[C@H](C)NC(=O)[C@@H](NC(=O)[C@H](CN)N2C(=O)C=CC2=O)C(C)C)cc1)C(=O)N(C)[C@H](C[C@@H](OC(C)=O)c1nc(C(=O)N[C@@H](Cc2ccccc2)C[C@H](C)C(=O)O)cs1)C(C)C (stereo partly drawn) [Compound 32, (2R)-2-(((2S,3S)-1-(((1R,3R)-1-acetoxy-1-(4-(((2R,4S)-4-carboxy-1-phenylpentan-2-yl)carbamoyl)thiazol-2-yl)-4-methylpentan-3-yl)(methyl)amino)-3-methyl-1-oxopentan-2-yl)carbamoyl)-1-(4-((S)-2-((S)-2-((S)-3-amino-2-(2,5-dioxo-2,5-dihydro-1H-pyrrol-1-yl)propanamido)-3-methylbutanamido)propanamido)benzyl)-1-methylpiperidin-1-ium]
- IC50, DEL/BVR, MDR+ ALCL (DEL/BVR MDR+ ALCL cells; [5]): 4 ng/mL
- IC50, Hep3B, CD30- HCC [3]: >1000 ng/mL
- IC50, L428, MDR+ HL (L428 MDR+ HL cells; [5]): 1 ng/mL

SMILES: CCCO[C@H](C[C@H](C(C)C)N(C)C(=O)[C@@H](NC(=O)[C@H]1CCCC[N+]1(C)Cc1ccc(O[C@@H]2O[C@H](C(=O)O)[C@@H](O)[C@H](O)[C@H]2O)c(NC(=O)CCNC(=O)[C@H](CN)N2C(=O)C=CC2=O)c1)[C@@H](C)CC)c1nc(C(=O)N[C@@H](Cc2ccccc2)C[C@H](C)C(=O)O)cs1 (stereo partly drawn) [Compound 80, (2R)-1-(3-(3-((S)-3-amino-2-(2,5-dioxo-2,5-dihydro-1H-pyrrol-1-yl)propanamido)propanamido)-4-(((2S,3R,4S,5S,6S)-6-carboxy-3,4,5-trihydroxytetrahydro-2H-pyran-2-yl)oxy)benzyl)-2-(((2S,3S)-1-(((1R,3R)-1-(4-(((2R,4S)-4-carboxy-1-phenylpentan-2-yl)carbamoyl)thiazol-2-yl)-4-methyl-1-propoxypentan-3-yl)(methyl)amino)-3-methyl-1-oxopentan-2-yl)carbamoyl)-1-methylpiperidin-1-ium]
- clearance / exposure profile compared with unconjugated antibody (FIG. 12-14) [1]: cleared from circulation much more rapidly than the unmodified antibody

SMILES: CC[C@H](C)[C@@H]([C@@H](CC(=O)N1CCC[C@H]1[C@H](OC)[C@@H](C)C(=O)N[C@@H](Cc1ccccc1)C(=O)O)OC)N(C)C(=O)[C@@H](NC(=O)[C@H](C(C)C)N(C)C(=O)OCc1ccc(NC(=O)[C@H](CCCNC(N)=O)NC(=O)[C@@H](NC(=O)CCCCCN2C(=O)C=CC2=O)C(C)C)cc1)C(C)C [Compound 193, MC-Val-Cit-PABC-MMAF, reference compound] ({Hexanoyl(6-maleimido)}-V[Cit][PABC][NMeV]V[Dil][Dolaproine]F-OH)
- IC50, HL60, AML (HL60 AML cells; [6]): 33 ng/mL (≈ 0.0248 µM)
- IC50, HL60/RV, MDR+ AML (HL60/RV MDR+ AML cells; [6]): 15 ng/mL (≈ 0.0113 µM)

SMILES: CC[C@H](C)[C@H](NC(=O)[C@H]1CCCCN1C)C(=O)N(C)[C@H](C[C@@H](OC(=O)CC(C)(C)C)c1nc(C(=O)N[C@@H](Cc2ccccc2)C[C@H](C)C(=O)O)cs1)C(C)C [Compound 159, (2S,4R)-4-(2-((1R,3R)-3-((2S,3S)—N,3-dimethyl-2-((R)-1-methylpiperidine-2-carboxamido)pentanamido)-1-((3,3-dimethylbutanoyl)oxy)-4-methylpentyl)thiazole-4-carboxamido)-2-methyl-5-phenylpentanoic acid]
- potency loss relative to tubulysin M (panel of cell lines; free drug, across the cell lines of Table 6): 5-47 fold

SMILES: CC[C@H](C)[C@H](NC(=O)[C@H]1CCCC[N+]1(C)Cc1ccc(O[C@@H]2O[C@H](C(=O)O)[C@@H](O)[C@H](O)[C@H]2O)c(NC(=O)CCNC(=O)[C@H](CN)N2C(=O)C=CC2=O)c1)C(=O)N(C)[C@H](C[C@@H](OC(C)=O)c1nc(C(=O)N[C@@H](Cc2ccccc2)C[C@H](C)C(=O)O)cs1)C(C)C (stereo partly shown) [Compound 104]
- IC50, DEL/BVR, MDR+ ALCL (DEL/BVR MDR+ ALCL cells; [7]): 3 ng/mL
- IC50, DEL/BVR, MDR+ ALCL (DEL/BVR MDR+ ALCL cells; [5]): 4 ng/mL
- IC50, L540cy, HL [2, 7]: 4 ng/mL
- IC50, DEL, ALCL (DEL ALCL cells; [7]): 2 ng/mL
- IC50, DEL, ALCL (DEL ALCL cells; [4]): 2 ng/mL
- IC50, Hep3B, CD30- HCC [3]: >1000 ng/mL
- IC50, Karpas299, ALCL (Karpas299 ALCL cells; Table 7, cAC10 (anti-CD30) conjugate of the Drug-Linker, 8 D+/Ab, 96 h): 0.6 ng/mL
- IC50, L428, MDR+ HL (L428 MDR+ HL cells; [7]): 0.5 ng/mL
- IC50, L428, MDR+ HL (L428 MDR+ HL cells; [5]): 0.4 ng/mL

SMILES: CC[C@H](C)[C@H](NC(=O)[C@H]1CCCC[N+]1(C)Cc1ccc(NC(=O)[C@H](CCC(=O)O)NC(=O)[C@@H](NC(=O)[C@H](CN)N2C(=O)C=CC2=O)C(C)C)cc1)C(=O)N(C)[C@H](C[C@@H](OC(C)=O)c1nc(C(=O)N[C@@H](Cc2ccccc2)C[C@H](C)C(=O)O)cs1)C(C)C (stereo partly drawn) [Compound 113, (2R)-2-(((2S,3S)-1-(((1R,3R)-1-acetoxy-1-(4-(((2R,4S)-4-carboxy-1-phenylpentan-2-yl)carbamoyl)thiazol-2-yl)-4-methylpentan-3-yl)(methyl)amino)-3-methyl-1-oxopentan-2-yl)carbamoyl)-1-(4-((S)-2-((S)-2-((S)-3-amino-2-(2,5-dioxo-2,5-dihydro-1H-pyrrol-1-yl)propanamido)-3-methylbutanamido)-4-carboxybutanamido)benzyl)-1-methylpiperidin-1-ium]
- IC50, DEL/BVR, MDR+ ALCL (DEL/BVR MDR+ ALCL cells; [5]): 2 ng/mL
- IC50, Hep3B, CD30- HCC [3]: >1000 ng/mL
- IC50, L428, MDR+ HL (L428 MDR+ HL cells; [5]): 0.3 ng/mL
